Source: EP4001279A1, “NOVEL SPIROPYRROLIDINE DERIVED ANTIVIRAL AGENTS” (Enanta Pharmaceuticals, Inc., priority 2020, dated 2022)

Tested on: 229E human corona virus (hCoV)
Test: 229E live virus assay (CPE, ATPlite readout in MRC-5 cells)
Format: cell-based, hCoV-229E
Conditions: MOI 0.05, ATPlite readout, run in duplicate
[1] = Human coronavirus 229E, MRC5, hCoV-229E live virus

Compound	EC50 [1] [nM]	EC50 (hCoV-229E live virus) [nM]
COc1cc(C(=O)N(C)[C@@H](CC(C)C)C(=O)N2C[C@]3(C[C@H]2C#N)C(=O)Nc2ccccc23)cc2cn(C3CCC3)nc12 [Example 320]	100 to 1000	
Cc1ccc2cc(C(=O)N(C)[C@@H](CC(C)C)C(=O)N3C[C@]4(C[C@H]3C#N)C(=O)Nc3ccccc34)cc(OC3CC3)c2n1 [Example 321]	100 to 1000	
CC(C)C[C@@H](C(=O)N1C[C@]2(C[C@H]1C#N)C(=O)Nc1ccccc12)N(C)C(=O)c1cc(OC(F)(F)F)c2ncccc2c1 [Example 322]	< 100	
Cc1cc2cc(C(=O)N(C)[C@@H](CC(C)C)C(=O)N3C[C@]4(C[C@H]3C#N)C(=O)Nc3ccccc34)cc(OC3CC3)c2nc1C [Example 323]	100 to 1000	
CC(C)C[C@@H](C(=O)N1C[C@]2(C[C@H]1C#N)C(=O)Nc1ccccc12)N(C)C(=O)c1cc(OC2CC2)c2ncc(C3CC3)cc2c1 [Example 324]	100 to 1000	
Cc1cc(F)c(C(=O)N(C)[C@@H](CC(C)C)C(=O)N2C[C@]3(C[C@H]2C#N)C(=O)Nc2ccccc23)cc1-c1cnn(C2CC2)c1 [Example 342]	100 to 1000	
CC(C)C[C@@H](C(=O)N1C[C@]2(C[C@H]1C#N)C(=O)Nc1ccccc12)N(C)C(=O)c1ccc(OC2CC2)c(-c2cccnc2)c1 [Example 343]	100 to 1000	
CC(C)C[C@@H](C(=O)N1C[C@]2(C[C@H]1C#N)C(=O)Nc1ccccc12)N(C)C(=O)[C@H]1CCN(C(=O)OC(C)(C)C)C1 [Example 344]	100 to 1000	
CC(C)C[C@@H](C(=O)N1C[C@]2(C[C@H]1C#N)C(=O)Nc1ccccc12)N(C)C(=O)[C@@H]1CCN(C(=O)OC(C)(C)C)C1 [Example 345]		< 100
CC(C)C[C@@H](C(=O)N1C[C@]2(C[C@H]1C#N)C(=O)Nc1ccccc12)N(C)C(=O)[C@@H](c1cnn(C)c1)C(C)C [Example 348]	100 to 1000	
CC(C)C[C@@H](C(=O)N1C[C@]2(C[C@H]1C#N)C(=O)Nc1ccccc12)N(C)C(=O)[C@H](c1cnn(C)c1)C(C)C [Example 349]	100 to 1000	
CC(C)C[C@@H](C(=O)N1C[C@]2(C[C@H]1C#N)C(=O)Nc1ccccc12)N(C)C(=O)[C@@H](c1cn(C)nn1)C(C)C [Example 350]	100 to 1000	
CC(C)C[C@@H](C(=O)N1C[C@]2(C[C@H]1C#N)C(=O)Nc1ccccc12)N(C)C(=O)[C@H](c1cn(C)nn1)C(C)C [Example 351]	100 to 1000	
CC(C)C[C@@H](C(=O)N1C[C@]2(C[C@H]1C#N)C(=O)Nc1ccccc12)N(C)C(=O)c1cnn(C(C)(C)C)c1 [Example 352]	< 100	
CC(C)C[C@@H](C(=O)N1C[C@]2(C[C@H]1C#N)C(=O)Nc1ccccc12)N(C)C(=O)c1cnn(-c2ccccc2C(F)(F)F)c1 [Example 353]	< 100	
CC(C)C[C@@H](C(=O)N1C[C@]2(C[C@H]1C#N)C(=O)Nc1ccccc12)N(C)C(=O)c1nnc(C2CC2)o1 [Example 354]	< 100	
CC(C)C[C@@H](C(=O)N1C[C@]2(C[C@H]1C#N)C(=O)Nc1ccccc12)N(C)C(=O)c1nnc(-c2ccc(F)cc2)o1 [Example 355]	< 100	
CC(C)C[C@@H](C(=O)N1C[C@]2(C[C@H]1C#N)C(=O)Nc1ccccc12)N(C)C(=O)c1nnn(C(C)(C)C)n1 [Example 356]	< 100	
COc1cccc2[nH]c(C(=O)N(C)[C@@H](COC(C)(C)C)C(=O)N3C[C@]4(C[C@H]3C#N)C(=O)Nc3ccccc34)cc12 [Example 370]	< 100	
CN(C(=O)c1cc2c(F)cc(F)cc2[nH]1)[C@@H](COC(C)(C)C)C(=O)N1C[C@]2(C[C@H]1C#N)C(=O)Nc1ccccc12 [Example 371]	< 100	

Compound	EC50 [1] [nM]	EC50 (hCoV-229E live virus) [nM]
C[C@@H](C(=O)N(C)[C@@H](CC(C)(C)C)C(=O)N1C[C@]2(C[C@H]1C#N)C(=O)Nc1ccccc12)c1cnn(C)c1 [Example 372]	< 100	
C[C@H](C(=O)N(C)[C@@H](CC(C)(C)C)C(=O)N1C[C@]2(C[C@H]1C#N)C(=O)Nc1ccccc12)c1cnn(C)c1 [Example 373]	100 to 1000	
CN(C(=O)C(F)(F)F)[C@@H](CC(C)(C)C)C(=O)N1C[C@]2(C[C@H]1C#N)C(=O)Nc1ccccc12 [Example 374]	100 to 1000	
CN(C(=O)c1cc2c(OC3CC3)cccc2[nH]1)[C@@H](CC(C)(C)C)C(=O)N1C[C@]2(C[C@H]1C#N)C(=O)Nc1ccccc12 [Example 375]	< 100	
[2H]C([2H])([2H])N(C(=O)c1nc(-c2ccccc2)c[nH]1)[C@@H](CC(C)(C)C)C(=O)N1C[C@]2(C[C@H]1C#N)C(=O)Nc1ccccc12 [Example 376]	< 100	
[2H]C([2H])([2H])N(C(=O)c1cn(-c2ccc(Cl)cc2)nn1)[C@@H](CC(C)(C)C)C(=O)N1C[C@]2(C[C@H]1C#N)C(=O)Nc1ccccc12 [Example 377]	< 100	
[2H]C([2H])([2H])N(C(=O)c1cn(C2CC2)nn1)[C@@H](CC(C)(C)C)C(=O)N1C[C@]2(C[C@H]1C#N)C(=O)Nc1ccccc12 [Example 378]	< 100	
[2H]C([2H])([2H])N(C(=O)c1cn(C2CCC2)nn1)[C@@H](CC(C)(C)C)C(=O)N1C[C@]2(C[C@H]1C#N)C(=O)Nc1ccccc12 [Example 379]	< 100	
[2H]C([2H])([2H])N(C(=O)c1cn(CC(F)(F)F)nn1)[C@@H](CC(C)(C)C)C(=O)N1C[C@]2(C[C@H]1C#N)C(=O)Nc1ccccc12 [Example 380]	< 100	
[2H]C([2H])([2H])N(C(=O)c1ccc2ncc(C(F)(F)F)cc2c1)[C@@H](CC(C)(C)C)C(=O)N1C[C@]2(C[C@H]1C#N)C(=O)Nc1ccccc12 [Example 381]	< 100	
[2H]C([2H])([2H])N(C(=O)c1cc(OC(F)(F)F)c2ncccc2c1)[C@@H](CC(C)(C)C)C(=O)N1C[C@]2(C[C@H]1C#N)C(=O)Nc1ccccc12 [Example 382]	< 100	
[2H]C([2H])([2H])N(C(=O)c1cc(OC(F)F)c2ncccc2c1)[C@@H](CC(C)(C)C)C(=O)N1C[C@]2(C[C@H]1C#N)C(=O)Nc1ccccc12 [Example 383]	< 100	
CN(C(=O)c1cn(C(C)(C)C)nn1)[C@@H](CC1CC1)C(=O)N1C[C@]2(C[C@H]1C#N)C(=O)Nc1ccccc12 [Example 402]	< 100	
CN(C(=O)c1cc2c(F)cc(F)c(F)c2[nH]1)[C@@H](CCC(C)(C)C)C(=O)N1C[C@]2(C[C@H]1C#N)C(=O)Nc1ccccc12 [Example 412]	< 100	
CCCOC[C@@H](C(=O)N1C[C@]2(C[C@H]1C#N)C(=O)Nc1ccccc12)N(C)C(=O)c1cc2c(F)cc(F)cc2[nH]1 [Example 413]	< 100	
CN(C(=O)[C@H](O)C(C)(C)C)[C@@H](CC1CC1)C(=O)N1C[C@]2(C[C@H]1C#N)C(=O)Nc1ccccc12 [Example 417]	< 100	
CCCC[C@H](NC(=O)[C@@H](O)c1ccc(F)cc1)C(=O)N1C[C@]2(C[C@H]1C#N)C(=O)Nc1ccccc12 [Example 418]	100 to 1000	
CCCC[C@H](NC(=O)[C@H](O)c1ccc(F)cc1)C(=O)N1C[C@]2(C[C@H]1C#N)C(=O)Nc1ccccc12 [Example 419]	100 to 1000	
CN(C(=O)[C@H](O)Cc1ccc(F)cc1)[C@@H](CC1CC1)C(=O)N1C[C@]2(C[C@H]1C#N)C(=O)Nc1ccccc12 [Example 423]	< 100	
CC(C)C[C@@H](O)C(=O)N(C)[C@@H](CC1CC1)C(=O)N1C[C@]2(C[C@H]1C#N)C(=O)Nc1ccccc12 [Example 424]	< 100	

Compound	EC50 [1] [nM]	EC50 (hCoV-229E live virus) [nM]
[2H]C([2H])([2H])N(C(=O)[C@@H](O)c1ccccc1)[C@@H](CC(C)(C)C)C(=O)N1C[C@]2(C[C@H]1C#N)C(=O)Nc1ccccc12 [Example 427]	< 100	
[2H]C([2H])([2H])N(C(=O)[C@H](O)c1ccccc1)[C@@H](CC(C)(C)C)C(=O)N1C[C@]2(C[C@H]1C#N)C(=O)Nc1ccccc12 [Example 428]	< 100	
CC(C)C[C@@H](C(=O)N1C[C@]2(C[C@H]1C#N)C(=O)Nc1ccccc12)N(C(=O)C(F)(F)F)C(C)C [Example 432]	> 1000	
CC(C)(C)C[C@H](NC(=O)Nc1ccccc1)C(=O)N1C[C@]2(C[C@H]1C#N)C(=O)Nc1ccccc12 [Example 435]	< 100	
CC(C)(C)C[C@H](NC(=O)Nc1ccc(F)cc1F)C(=O)N1C[C@]2(C[C@H]1C#N)C(=O)Nc1ccccc12 [Example 436]	< 100	
CC(C)(C)C[C@H](NC(=O)Nc1c(F)cccc1F)C(=O)N1C[C@]2(C[C@H]1C#N)C(=O)Nc1ccccc12 [Example 437]	< 100	
Cc1cccc(C)c1NC(=O)N[C@@H](CC(C)(C)C)C(=O)N1C[C@]2(C[C@H]1C#N)C(=O)Nc1ccccc12 [Example 438]	< 100	
CC(C)(C)C[C@H](NC(=O)Nc1ccc2ccccc2c1)C(=O)N1C[C@]2(C[C@H]1C#N)C(=O)Nc1ccccc12 [Example 439]	< 100	
CC(C)(C)C[C@H](NC(=O)NC1CCCCC1)C(=O)N1C[C@]2(C[C@H]1C#N)C(=O)Nc1ccccc12 [Example 440]	< 100	
CC(C)(C)C[C@H](NC(=O)Nc1ccc(F)cc1)C(=O)N1C[C@]2(C[C@H]1C#N)C(=O)Nc1ccccc12 [Example 441]	< 100	
CC(=O)C[C@@H](C(=O)N1C[C@]2(C[C@H]1C#N)C(=O)Nc1ccccc12)N(C)C(=O)c1cc2c(F)cc(F)cc2[nH]1 [Example 442]	< 100	
CN(C(=O)c1cc2c(F)cc(F)cc2[nH]1)[C@@H](CC(C)(C)O)C(=O)N1C[C@]2(C[C@H]1C#N)C(=O)Nc1ccccc12 [Example 443]	100 to 1000	
CN(C(=O)c1cc2c(F)cc(F)c(F)c2[nH]1)[C@@H](CC(C)(C)O)C(=O)N1C[C@]2(C[C@H]1C#N)C(=O)Nc1ccccc12 [Example 444]	100 to 1000	
CC(C)(F)C[C@H](NC(=O)COc1ccc(F)cc1F)C(=O)N1C[C@]2(C[C@H]1C#N)C(=O)Nc1ccc(Cl)cc12 [Example 445]	100 to 1000	
CC(C)(F)C[C@H](NC(=O)c1cc2ccccn2n1)C(=O)N1C[C@]2(C[C@H]1C#N)C(=O)Nc1ccc(Cl)cc12 [Example 446]	100 to 1000	
CC(C)(F)C[C@H](NC(=O)c1cccc(OC(F)(F)F)c1)C(=O)N1C[C@]2(C[C@H]1C#N)C(=O)Nc1ccc(Cl)cc12 [Example 447]	100 to 1000	
CC(C)(C)C[C@H](NC(=O)c1cc2c(F)cc(F)cc2[nH]1)C(=O)N1C[C@]2(C[C@H]1C#N)C(=O)Nc1ccc(Cl)cc12 [Example 448]	< 100	
CC(C)(F)C[C@H](NC(=O)c1ccc(F)cc1F)C(=O)N1C[C@]2(C[C@H]1C#N)C(=O)Nc1ccc(Cl)cc12 [Example 449]	100 to 1000	
